pIC50: −log10 of the molar value.

The assay deals with T1, T. gondii CDPK1 (tgCDPK1) (Toxoplasma gondii, UniProt Q9BJF5).
T1 sequence (Q9BJF5 1-507): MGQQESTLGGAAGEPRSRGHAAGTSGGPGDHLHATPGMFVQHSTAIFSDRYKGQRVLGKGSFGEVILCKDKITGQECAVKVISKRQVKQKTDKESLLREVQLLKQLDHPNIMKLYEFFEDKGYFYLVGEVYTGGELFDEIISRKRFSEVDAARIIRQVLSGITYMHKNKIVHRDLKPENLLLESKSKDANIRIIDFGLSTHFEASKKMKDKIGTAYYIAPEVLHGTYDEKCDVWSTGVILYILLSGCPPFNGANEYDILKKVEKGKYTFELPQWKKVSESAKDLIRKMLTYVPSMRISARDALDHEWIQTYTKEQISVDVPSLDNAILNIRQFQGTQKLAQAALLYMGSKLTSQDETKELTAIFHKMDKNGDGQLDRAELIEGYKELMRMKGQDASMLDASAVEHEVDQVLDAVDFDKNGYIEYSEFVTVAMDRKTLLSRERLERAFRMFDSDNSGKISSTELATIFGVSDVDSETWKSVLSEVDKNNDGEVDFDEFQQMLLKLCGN
Briefly: biochemical. The note with it: inhibition of T. gondii CDPK1; at least three independent replicates; read-out: tgCDPK1 IC50. Here is the method:
Certain of the compounds prepared as described above were assayed to determine their IC50 for inhibition of T. gondii CDPK1 (tgCDPK1). At least three independent replicates of the assay were conducted for each compound tested.
Take `NC(=O)c1ccnc(Oc2nn(C3CCCC3)c3ncnc(N)c23)c1` [Compound 204]: the pIC50 was 7.17.

As for `NC(=O)c1ccnc(Oc2nn(C3CCCCC3)c3ncnc(N)c23)c1` [Compound 205], the pIC50 was 7.57.

As for `NC(=O)c1ccnc(Oc2nn(C3CCC(F)(F)CC3)c3ncnc(N)c23)c1` [Compound 206], the pIC50 is 7.01.

Consider `N#Cc1ccnc(Oc2nn([C@H]3CC[C@@H](C(F)(F)F)CC3)c3ncnc(N)c23)c1` [Compound 207], for which the pIC50 is 7.63.

In the case of `NC(=O)c1ccnc(Oc2nn([C@H]3CC[C@@H](C(F)(F)F)CC3)c3ncnc(N)c23)c1` [Compound 208], the pIC50 is 7.05.

For `N#Cc1ccnc(Oc2nn([C@H]3CC[C@H](C(F)(F)F)CC3)c3ncnc(N)c23)c1` [Compound 209], the pIC50 was 7.59.

Take `CC(C)(C)OC(=O)N1CCC(Cn2nc(Oc3cc(Cl)ccn3)c3c(N)ncnc32)C(F)(F)C1` (stereo not drawn) [Compound 212]: the pIC50 was 7.51.

For `Nc1ncnc2c1c(Oc1cc(Cl)ccn1)nn2CC1CCNCC1(F)F` (stereo not drawn) [Compound 213], the pIC50 is 8.01.

Regarding `Nc1ncnc2c1c(Oc1cc(Cl)ccn1)nn2C1CCCCC1` [Compound 214], the pIC50 is 8.34.

Turning to `N#Cc1ccnc(Oc2nn(C3CCCCC3)c3ncnc(N)c23)c1` [Compound 215], the pIC50 is 7.91.

With `Nc1ncnc2c1c(Oc1cc(Cl)ccn1)nn2C1CCCOC1` (stereo not drawn) [Compound 216], the pIC50 was 7.80.

In the case of `COc1ccnc(Oc2nn(C3CCOC3)c3ncnc(N)c23)c1` (stereo not drawn) [Compound 219], the pIC50 is 7.11.

Regarding `COc1ccnc(Oc2nn(C3CCOCC3)c3ncnc(N)c23)c1` [Compound 220], the pIC50 is 7.26.

For `N#Cc1ccnc(Oc2nn(CC3CC3)c3ncnc(N)c23)c1` [Compound 221], the pIC50 was 7.62.

For the compound `Nc1ncnc2c1c(Oc1cc(Cl)ccn1)nn2C1CCCNC1` (stereo not drawn) [Compound 222], the pIC50 is 7.61.

With `COc1ccnc(Oc2nn(CC3CC3)c3ncnc(N)c23)c1` [Compound 223], the pIC50 is 7.60.

In the case of `CC(C)(C)OC(=O)N1CCCC(n2nc(Oc3cc(Cl)ccn3)c3c(N)ncnc32)C1` (stereo not drawn) [Compound 224], the pIC50 was 7.36.

As to `Nc1ncnc2c1c(Oc1cc(Cl)ccn1)nn2CC1CC1` [Compound 225], the pIC50 was 8.05.

With `CN(C)C1CCC(n2nc(Oc3cc(C(F)(F)F)ccn3)c3c(N)ncnc32)CC1` (stereo not drawn) [Compound 227], the pIC50 was 7.55.

With `COC(=O)C1CCC(n2nc(Oc3cc(C(F)(F)F)ccn3)c3c(N)ncnc32)CC1` (stereo not drawn) [Compound 228], the negative-log IC50 (pIC50) is 7.60.

Consider `Nc1ncnc2c1c(Oc1cc(C(F)(F)F)ccn1)nn2C1CCC(O)C1` (stereo not drawn) [Compound 230], for which the pIC50 was 7.62.

Turning to `Nc1ncnc2c1c(Oc1cc(C(F)(F)F)ccn1)nn2[C@H]1CC[C@@H](O)CC1` [Compound 231], the pIC50 is 7.73.

Take `Nc1ncnc2c1c(Oc1cc(C(F)(F)F)ccn1)nn2C1CCC(N)CC1` (stereo not drawn) [Compound 232]: the pIC50 is 7.61.

Regarding `Nc1ncnc2c1c(Oc1cc(C(F)(F)F)ccn1)nn2[C@H]1CCCC[C@H]1F` [Compound 233], the pIC50 is 7.46.

For the compound `Nc1ncnc2c1c(Oc1cc(C(F)(F)F)ccn1)nn2C1CC2CNC1C2` (stereo not drawn) [Compound 234], the pIC50 is 7.12.

Take `Nc1ncnc2c1c(Oc1cc(C(F)(F)F)ccn1)nn2[C@H]1CC[C@H](O)CC1` [Compound 235]: the pIC50 is 7.80.

Turning to `COC1CCCCC1n1nc(Oc2cc(C(F)(F)F)ccn2)c2c(N)ncnc21` (stereo not drawn) [Compound 236], the pIC50 is 7.07.

Turning to `CO[C@H]1CC[C@H](n2nc(Oc3cc(C(F)(F)F)ccn3)c3c(N)ncnc32)CC1` [Compound 237], the pIC50 is 7.42.

With `CO[C@H]1CC[C@@H](n2nc(Oc3cc(C(F)(F)F)ccn3)c3c(N)ncnc32)CC1` [Compound 238], the pIC50 is 7.35.

On to `Nc1ncnc2c1c(Oc1cc(C(F)(F)F)ccn1)nn2[C@H]1CC[C@@H](N)CC1` [Compound 239], for which the pIC50 is 7.64.

Consider `CC(C)(C)OC(=O)N[C@H]1CC[C@@H](n2nc(Oc3cc(C(F)(F)F)ccn3)c3c(N)ncnc32)C1` [Compound 240], for which the pIC50 was 7.92.

For `Nc1ncnc2c1c(Oc1cc(C(F)(F)F)ccn1)nn2[C@H]1CC[C@@H](CO)CC1` [Compound 242], the pIC50 is 7.82.

On to `Nc1ncnc2c1c(Oc1cc(C(F)(F)F)ccn1)nn2[C@H]1CC[C@H](CO)CC1` [Compound 243], for which the pIC50 was 7.99.

As to `Nc1ncnc2c1c(Oc1cc(C(F)(F)F)ccn1)nn2CC1(C(F)(F)F)CC1` [Compound 244], the pIC50 is 7.51.

Regarding `Nc1ncnc2c1c(Oc1cccc(Cl)c1)nn2Cc1cc[nH]c1` [Compound 247], the pIC50 was 7.71.

Consider `Nc1ncnc2c1c(Oc1cc(C(F)(F)F)ccn1)nn2[C@H]1COC[C@H](N)C1` [Compound 248], for which the pIC50 is 7.22.

Take `Nc1ncnc2c1c(Oc1cc(C(F)(F)F)ccn1)nn2[C@H]1COC[C@@H](N)C1` [Compound 249]: the pIC50 is 7.26.

As to `Nc1ncnc2c1c(Oc1cccc(Cl)c1)nn2CC1(CO)CC1` [Compound 250], the pIC50 is 7.46.

For `Nc1ncnc2c1c(Oc1cc(C(F)(F)F)ccn1)nn2[C@@H]1CC[C@H](N)C1` [Compound 251], the pIC50 is 7.38.

`Nc1ncnc2[nH]nc(Oc3cccc(Cl)c3)c12` [Compound 252]: the pIC50 was 7.11.

In the case of `CC(C)(C)n1nc(Cc2c[nH]c3ccccc23)c2c(N)ncnc21` [Compound 254], the pIC50 was 8.05.

On to `CC(C)(C)n1nc(Cc2cccc(C#N)c2)c2c(N)ncnc21` [Compound 255], for which the pIC50 is 7.87.

Turning to `Nc1ncnc2c1c(Oc1cc(C(F)(F)F)ccn1)nn2C1CCCC1` [Compound 257], the pIC50 is 7.63.

`CC(C)(C)n1nc(Oc2cc(C(F)(F)F)ccn2)c2c(N)ncnc21` [Compound 258]: the pIC50 was 7.86.

`CC(C)(C)n1nc(Oc2cc(C#N)ccn2)c2c(N)ncnc21` [Compound 259]: the pIC50 was 7.74.

Consider `CC(C)(C)n1nc(Oc2cc(C(N)=O)ccn2)c2c(N)ncnc21` [Compound 260], for which the pIC50 is 7.39.

As for `Nc1ncnc2c1c(Oc1cc(Cl)ccn1)nn2C1CCC(F)(F)CC1` [Compound 261], the pIC50 is 7.45.

On to `CC(C)(C)n1nc(Oc2cc(Cl)ccn2)c2c(N)ncnc21` [Compound 262], for which the pIC50 was 7.92.

On to `N#Cc1ccnc(Oc2nn(CC3CCNCC3(F)F)c3ncnc(N)c23)c1` (stereo not drawn) [Compound 263], for which the pIC50 was 7.41.

For `CC(C)(C)n1nc(Oc2cc(O)ccn2)c2c(N)ncnc21` [Compound 264], the pIC50 was 7.86.

As to `CC(C)(CO)Cn1nc(Oc2cccc(Cl)c2)c2c(N)ncnc21` [Compound 265], the pIC50 was 7.32.

Turning to `C=CC(O)Cn1nc(Oc2cc(C(F)(F)F)ccn2)c2c(N)ncnc21` (stereo not drawn) [Compound 268], the pIC50 is 7.93.

`Nc1ncnc2c1c(Oc1cc(C(F)(F)F)ccn1)nn2CC1CCB(O)O1` (stereo not drawn) [Compound 269]: the negative-log IC50 (pIC50) is 7.54.

As to `Nc1ncnc2c1c(Oc1cc(C(F)(F)F)ccn1)nn2CC1CC(B(O)O)C1` (stereo not drawn) [Compound 270], the pIC50 was 7.54.

For the compound `Nc1ncnc2c1c(Oc1cc(C(F)(F)F)ccn1)nn2C1CCNCC1(F)F` (stereo not drawn) [Compound 271], the pIC50 is 7.70.

Turning to `Nc1ncnc2c1c(Oc1cc(C(F)(F)F)ccn1)nn2C1(C(F)(F)F)CCC1` [Compound 272], the pIC50 is 7.68.

As to `Nc1ncnc2c1c(Oc1cc(C(F)(F)F)ccn1)nn2CC1CC(O)C1` (stereo not drawn) [Compound 273], the pIC50 is 7.45.

`Nc1ncnc2c1c(Oc1cc(C(F)(F)F)ccn1)nn2C1CC(F)(F)CCC1O` (stereo not drawn) [Compound 274]: the pIC50 was 7.46.

Regarding `CC(=O)Oc1ccnc(Oc2nn(C3CCC(F)(F)CC3)c3ncnc(N)c23)c1` [Compound 277], the pIC50 was 7.67.

For the compound `Nc1ncnc2c1c(Oc1cc(O)ccn1)nn2[C@H]1CCCC[C@@H]1O` [Compound 278], the pIC50 is 7.72.

As for `Nc1ncnc2c1c(Oc1cc(C(F)(F)F)ccn1)nn2C1CCCCC1(F)F` (stereo not drawn) [Compound 279], the pIC50 is 7.45.

Turning to `Nc1ncnc2c1c(Oc1cc(C(F)(F)F)ccn1)nn2CC(F)(F)F` [Compound 280], the pIC50 was 7.41.

`COc1ccnc(Oc2nn([C@@H]3CCCC[C@H]3O)c3ncnc(N)c23)c1` [Compound 281]: the pIC50 is 7.58.

For `COc1ccnc(Oc2nn([C@H]3CCCC[C@H]3O)c3ncnc(N)c23)c1` [Compound 282], the pIC50 is 7.38.

For the compound `CCOC(=O)C1(n2nc(Oc3cc(C(F)(F)F)ccn3)c3c(N)ncnc32)CCC1` [Compound 287], the pIC50 is 6.14.

As for `Nc1ncnc2c1c(Oc1cc(C(F)(F)F)ccn1)nn2C1(C(=O)O)CCC1` [Compound 288], the pIC50 is 4.93.

In the case of `Nc1ncnc2c1c(Oc1cc(C(F)(F)F)ccn1)nn2C1CCCCC1=O` (stereo not drawn) [Compound 289], the pIC50 was 7.01.

Turning to `Nc1ncnc2c1c(Oc1cc(O)ccn1)nn2C1CC(F)C1` (stereo not drawn) [Compound 290], the pIC50 was 8.06.

Turning to “(trans)-3-(4-amino-3-((5-fluoro-1H-indol-3-yl)methyl)-1H-pyrazolo[3,4-d]pyrimidin-1-yl)cyclobutan-1-ol [Compound 154]”, the pIC50 was 7.93.

Source of the values: US20210347780A1, “CDPK1 INHIBITORS, COMPOSITIONS, AND METHODS RELATED THERETO” (Vyera Pharmaceuticals, LLC, priority 2018, published 2021).
